Assay [1] concerns Rattus norvegicus. Put plainly: Increase in urinary excretion of prostaglandin E2 in adenine rich diet fed LWH:Wistar rat at […], ip administered from day 7 to day 12 of adenine ingestion. Format: functional, organism-based. The settings on record: Urine.
Assay [2] deals with Rattus norvegicus. Kind of assay: Effect on urinary excretion of prostaglandin in adenine rich diet fed LWH:Wistar rat assessed as urine 6-keto-PGF1-alpha level per 24 hrs at […], ip administered from day 7 to day 12 of adenine ingestion. It is filed as functional.
Assay [3] relates to Rattus norvegicus. Put plainly: Effect on urinary excretion of prostaglandin in adenine rich diet fed LWH:Wistar rat assessed as urine TXB2 level per 24 hrs at […], ip administered from day 7 to day 12 of adenine ingestion. Format: functional.
The test system of assay [4] is Rattus norvegicus. Put plainly: Protection against renal failure in adenine rich diet fed LWH:Wistar rat up to […], ip administered once daily from day 7 to day 12 of adenine ingestion. It is filed as functional, organism-based.
In assay [5] the test system is Rattus norvegicus. Put plainly: Decrease in urinary excretion of thromboxane B2 in adenine rich diet fed LWH:Wistar rat at […], ip administered from day 7 to day 12 of adenine ingestion. It is filed as functional, Urine. Details: scale not given: the % may be the effect or the level left.
For assay [6], the system named is Rattus norvegicus. Kind of assay: Effect on urinary excretion of prostaglandin in adenine rich diet fed LWH:Wistar rat assessed as urine prostaglandin E2 level per 24 hrs at […], ip administered from day 7 to day 12 of adenine ingestion. Format: functional.

SMILES strings stand for the structures. Calls of active or inactive are those of the source. No cut-off for these calls is given here.

Regarding `O=C(/C=C/c1ccc(O)c2c1[C@H](C(=O)O[C@H](Cc1ccc(O)c(O)c1)C(=O)[O-])[C@@H](c1ccc(O)c(O)c1)O2)O[C@H](Cc1ccc(O)c(O)c1)C(=O)[O-].[Mg+2]` [MAGNESIUM LITHOSPERMATE B], the outcome with Rattus norvegicus [1] and in the assay with Rattus norvegicus [4] was Active. Further, the Activity with Rattus norvegicus [2] is 20.7 ng; in the assay with Rattus norvegicus [3], 23.3 ng; with Rattus norvegicus [5] it was 36%; with Rattus norvegicus [6], 72.5 ng.

These data come from ChEMBL document CHEMBL1151155, “Effect of magnesium lithospermate B on urinary prostaglandins in rats with renal failure” (1990).
